Patent US8129340B2, “Inhibitors of protein phosphatase 1, GADD34 and protein phosphatase 1/GADD34 complex, preparation and uses thereof” (Institut Gustave Roussy, priority 2006, dated 2012)

How the values were obtained:
CRT [1] = assay: Inhibitory profile of CRT exposure (pre-incubation with inhibitors, immunocytofluorometry); assay type: cell-based; details: pre-incubation for 1 h
Description: FIG. 3S: Inhibitory profile of CRT exposure. Cells were treated with mitoxantrone or inhibitors of PP1/GADD34, after pre-incubation for 1 h with the indicated inhibitors of protein synthesis (cycloheximide), RNA synthesis (actinomycin D), microtubuli (nocodazol), or the actin cytoskeleton (latrunculin A). Then, CRT expression was determined by immunocytofluorometry. Results are means of triplicates±SD for one representative experiment out of three.

CRT [2] = assay: CRT exposure on tumour cell lines of human origin (HeLa, A549, HCT116); assay type: cell-based
CRT [3] = assay: CRT exposure on tumour cell lines of murine origin (MCA205, B16F10, J558); assay type: cell-based
CT26 cells = assay: Phagocytosis of CT26 tumour cells by dendritic cells (FACS, double positive cells); assay type: cell-based, BALB/c mice; details: within a few hours after treatment
Description: FIG. 3A, FIG. 3B: Correlation between tumour cell phagocytosis and CRT exposure. Tumour cells labelled with Cell Tracker Green were cultured with CD11c-expressing DC and the percentage of DC taking up tumour cells was determined (A) and correlated with the CRT surface exposure (B), measured as in FIG. 2E.
Mitoxantrone-treated or control cells were incubated with a blocking chicken anti-CRT antibody, followed by detection of phagocytosis by CD.
Cells were transfected with the indicated siRNAs and optionally treated with rCRT, followed by immunoblot (FIG. 3D) detection of surface CRT (FIG. 3E) and phagocytosis by DC (FIG. 3F). Results are triplicates (X±SD) and representative of three independent experiments. * denotes statistically significant differences using the Student t′ test at p<0.001.
BM cells were flushed from the tibias and femurs of BALB/c mice with culture medium composed of RPMI 1640 medium (Invitrogen Life Technologies) supplemented with 10% heat-inactivated FBS (Invitrogen), sodium pyruvate, 50 μM 2-ME (Sigma), 10 mM HEPES (pH 7.4), and penicillin/streptomycin (Invitrogen). After one centrifugation, BM cells were resuspended in Tris-ammonium chloride for 2 min to lyse RBC. After one more centrifugation, BM cells (1×10^6 cells/ml) were cultured in medium supplemented with 100 ng/ml recombinant mouse FLT3 ligand (R&D systems) in 6-well plates (Costar Corning). After 7 days, the non-adherent and loosely adherent cells were harvested with Versene, washed and transferred in 12-well plates (1.5×10^6 cells/plate) for cocultures with tumour cells.
In 12-well plates, […] adherent CT26 cells were labelled with Celltracker Green (Calbiochem) and then incubated with drugs. In some experiments viable CT26 were coated with 2 μg/10^6 cells of chicken anti-CRT antibody (ABR affinity bioreagents) or an isotype control for 30 min prior to washing and feeding to dendritic cells Cs. Alternatively CT26 cells were coated with 2 μg/10^6 cells of rCRT on ice for 30 min and washed twice prior to addition to dendritic cells. Cells were then harvested, washed three times with medium supplemented with FBS and cocultured with immature DC for 2 hours at a ratio of 1:1 and 1:5. At the end of the incubation, cells were harvested with versene, pooled with non-adherent cells present in the supernatant, washed and stained with CD11c-FITC antibody. Phagocytosis was assessed by FACS analysis of double positive cells. Phagocytic indexes refer to the ratio between values obtained at 4° C. and values obtained at 37° C. of co-incubation between DC and tumour cells.

CT26 tumour cells = assay: Anti-tumour vaccination: dying treated CT26 cells injected in one flank, later challenge with live tumour cells; assay type: in vivo, BALB/c mice
cell surface CRT [4] = assay: CRT exposure on enucleated CT26 cells (cytoplasts); assay type: cell-based, murine
Description: FIG. 5A: CRT exposure after anthracyclin treatment in the absence of a nucleus. Intact cells or enucleated cells (cytoplasts) were treated for 2 hours with mitoxantrone, followed by immunofluorescence detection of CRT exposure. Inserts show the effective removal of Hoechst 33342-stainable nuclei from the cytoplasts.
Trypsinized CT26 cells were enucleated as described in the publication of Andreau, K. et al. Contagious apoptosis facilitated by the HIV-1 envelope. Fusion-induced cell-to-cell transmission of a lethal signal. J. Cell Sci. 117, 5643-53 (2004). Briefly, cells were treated in 2 ml of complete RPMI medium containing cytochalasin B (10 μg/ml; Sigma) and DNase I (80 U/ml; Sigma). Cell suspension was adjusted to a final concentration of 5×10^6/ml and incubated at 37° C. for 45 minutes before being layered onto a previously prepared discontinuous Ficoll (Pharmacia) density gradient (3 ml of 100%, in 1 ml of 90% and 3 ml of 55% Ficoll Paque layer containing 5 μg/ml cytochalasin B and 40 U/ml DNase I; gradients were prepared in ultracentrifuge tubes and pre-equilibrated at 37° C. in a CO2 incubator overnight). […] Then the cell surface CRT was detected (see materials and methods) and the viability was determined by with propidium iodine staining (2 μg/ml, Sigma) for 5 min followed by cytofluorometric analysis. […] Phagocytosis was assessed by FACS analysis of double positive cells.

CT26 tumours [5] = assay: Intratumoural treatment of established CT26 tumours in immunocompetent mice; assay type: in vivo, BALB/c mice (wild type); details: for therapeutic effect of single agent on established tumours, immunocompetent mice: single intratumoural injection, 14-day-old CT26 tumours
CT26 tumours [6] = assay: Intratumoural treatment of established CT26 tumours in immunodeficient mice; assay type: in vivo, athymic nu/nu Balb/c mice; details: single intratumoural injection
cell surface CRT [7] = assay: Fluorescence detection of cell surface CRT on CT26 cells (cytofluorometry); assay type: cell-based, murine; details: agent alone
Description: FIG. 1SA, FIG. 1SB: Kinetics of CRT exposure. CT26 cells were treated with mitoxantrone for the indicated period, followed by immunofluorescence staining with a CRT-specific antibody and cytofluorometric analysis.
FIG. 2E: Correlation between CRT exposure and immunogenicity. The surface exposure of CRT was determined by immunofluorescence cytometry while gating on viable (propidium iodine-negative) cells (inserts) and was correlated with the immunogenicity of cell death (as determined in FIG. 1). CO, control; Tg, thapsigargin; Tu, tunicamycin.
FIG. 5E: Kinetics of CRT exposure determined by FACS analysis after incubation of cells with the indicated agents.
FIG. 5F-FIG. 5G: PP1/GADD34 inhibitors render cell immunogenic via CRT. Tumour cells were first transfected with a control siRNA or a CRT-specific siRNA and then treated in vitro with etoposide, alone or in combination with PP1/GADD34 inhibitors. […] The results represent the % of tumour free mice (comprising a total of 12 to 18 mice per group).
CT26 cells (on a glass slide or in 12-well plates) were first washed with FACS buffer (1×PBS, 5% fetus bovine serum, and 0.1% sodium azide) and then incubated with rabbit anti-mouse CRT antibody (1:100, Stressgen) in FACS buffer at 4° C. for 30 min. Cells reacted with anti-rabbit IgG (H+L) Alexa fluor 488-conjugates (1:500) in FACS buffer at 4° C. for 30 min. After washing three times with FACS buffer, surface CRT was detected by cytofluorometric analysis on a FACS Vantage. In some experiments, cells were fixed with 4% paraformaldehyde, counterstained with Hoechst (2 μM; Sigma), followed by fluorescence microscopic assessment with a Leica IRE2 microscope equipped with a DC300F camera.

ERp57 = assay: Flow cytometric detection of surface ERp57 on HeLa cells; assay type: cell-based, human; details: 150 nM, 2 h
Description: HeLa cells were treated with or without mitoxantrone (MTX, 1 μM) or tautomycin (Tau, 150 nM, Sigma) for 2 h. Cells were washed twice with PBS and fixed in PFA (4% w/v) for 5 min. HeLa cells were stained with an antibody against Erp57 (pAb from Abcam, ab10827) at 1:200 dilution or isotype control, in staining buffer (PBS, 1% FCS) for 30 min on ice, followed by washing. An anti-rabbit Alexa fluor 488 immunoglobulin conjugate (Molecular Probes-Invitrogen) diluted at 1:500 was added for an additional 30 min on ice before washing and analysed by flow cytometry (FACScan, Becton Dickinson). Propidium Iodide (50 μg/ml, Becton Dickinson) was added to the samples to label and exclude permeabilized (dead) cells. The CellQuest software was used to analyse the mean fluorescence intensity (MFI) and the percentage of ERp57 positive cells.

Structure (SMILES)	effect on CRT exposure induced by anthracyclins and PP1/GADD34 inhibitors (CRT [1])	CRT exposure on human tumour cell lines (CRT [2])	CRT exposure on murine tumour cell lines (CRT [3])	phagocytosis of drug-treated tumour cells by DC (CT26 cells)	immunogenicity of cell death (protection against tumour growth, anti-tumour vaccination) (CT26 tumour cells; dying CT26 cells treated with agent injected into one flank, live tumour cells in opposite flank 8 days later)	time to CRT exposure in cytoplasts (cell surface CRT [4])	therapeutic effect of single agent on established tumours, immunocompetent mice (CT26 tumours [5])	therapeutic effect of single agent on established tumours, nu/nu mice (CT26 tumours [6])	induction of CRT exposure at the cell surface (cell surface CRT [7])	induction of immunogenic cell death by the inhibitor alone (CT26 tumour cells; without cell death inducer)	surface exposure of ERp57, HeLa cells (ERp57)	therapeutic effect combined with a cell death inducer (etoposide or mitomycin C), immunocompetent mice (CT26 tumours [5]; intratumoural injection with etoposide or mitomycin C)
C/C1=C/C(=O)O[C@@H]2C[C@@H](CC[C@H](C)/C=C\C=C\CC1)O[C@@](O)([C@@H]1CSC(=O)N1)C2 [latrunculin A]	abolished	–	–	–	–	–	–	–	–	–	–	–
O=C1c2c(O)ccc(O)c2C(=O)c2c(NCCNCCO)ccc(NCCNCCO)c21 [mitoxantrone]	–	induced CRT exposure	induced CRT exposure	acquired the property to be phagocytosed by DC quickly	elicited immunogenic cell death	≤ 1 h	able to cause their permanent regression in some but not all cases	no cure	–	–	–	–
CO[C@H]([C@H](O)CC(=O)[C@@H](C)[C@@H](O)CC[C@@H](C)[C@@H]1O[C@]2(CC[C@@H](C)[C@H](CC[C@H](C)C(C)=O)O2)CC[C@@H]1C)[C@H](OC(=O)C[C@@H](O)C1=C(C)C(=O)OC1=O)C(C)C [tautomycin]	–	–	–	–	–	–	no major therapeutic effect	no major therapeutic effect	efficiently induced	not sufficient to induce immunogenic cell death	stimulates the surface exposure or ERp57	stable disease or complete tumour regression
